Assay results reported in patent US8927500B2, “Peptidomimetic macrocycles” (Aileron Therapeutics, Inc., priority 2012, dated 2015).
Like-named read-outs stand apart in the source and are kept apart here. Where a SMILES comes first, the peptide text is derived from it. Bridges are numbered along the chain shown (N, C = ends). [ ]: non-standard residue; d: D form. R8 = C=CCCCCCC[C@@](C)(N)C(=O)O; S5 = C=CCCC[C@](C)(N)C(=O)O

Columns and labels:
SJSA-1 cells = assay: Cell lysis by peptidomimetic macrocycles (LDH release); format: cell-based; conditions: 1 h at 37C
MDMX = target: T1, MDMX (Homo sapiens, UniProt O15151); assay: Competitive fluorescence polarization assay for MDMX; format: binding; conditions: competitive FP assay
T1 sequence (O15151 1-125): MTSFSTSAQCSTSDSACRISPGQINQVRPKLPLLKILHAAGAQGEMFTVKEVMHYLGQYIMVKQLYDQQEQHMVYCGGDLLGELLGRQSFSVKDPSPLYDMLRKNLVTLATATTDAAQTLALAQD

MDM2 = MDM2 (Homo sapiens, UniProt Q00987); assay: Competitive fluorescence polarization assay for MDM2; format: binding; conditions: competitive FP assay, MDM2
MDM2, sequence (Q00987 1-125): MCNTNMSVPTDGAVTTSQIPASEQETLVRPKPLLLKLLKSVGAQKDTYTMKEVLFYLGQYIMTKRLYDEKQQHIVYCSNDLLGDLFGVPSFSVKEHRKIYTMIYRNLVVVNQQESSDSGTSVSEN

Caspase 3 = Caspase 3 detection assay in SJSA1 cells; format: cell-based; conditions: 48 h, Caspase 3 activation over DMSO-treated cells; for caspase 0.3 uM: 0.3 uM peptide; for caspase 3 uM: 3 uM peptide; for caspase 10 uM: 10 uM peptide; for caspase 30 uM: 30 uM peptide; for caspase 1 uM: 1 uM peptide

Compound	6.25 uM % Lysed cells (1 h LDH) (SJSA-1 cells)	25 uM % Lysed cells (1 h LDH) (SJSA-1 cells)	50 uM % Lysed cells (1 h LDH) (SJSA-1 cells)	IC50 (MDMX; read-out: IC50 (MDMX))	Ki (MDMX; read-out: Ki (MDMX))	IC50 (MDM2; read-out: IC50 (MDM2))	Ki (MDM2; read-out: Ki (MDM2))	caspase 0.3 uM (Caspase 3)	caspase 3 uM (Caspase 3)	caspase 10 uM (Caspase 3)	caspase 30 uM (Caspase 3)	IC50 (MDMX; IC50 (MDMX))	Ki (MDMX; Ki (MDMX))	IC50 (MDM2; IC50 (MDM2))	Ki (MDM2; Ki (MDM2))	caspase 1 uM (Caspase 3)
CC[C@H](C)[C@H](NC(=O)[C@H](C)NC(=O)[C@H](C)NC(=O)[C@]1(C)CCCC=CCCCCCC[C@@](C)(NC(=O)[C@H](Cc2ccccc2)NC(=O)[C@@H](NC(=O)[C@H](CC(C)C)NC(C)=O)[C@@H](C)O)C(=O)N[C@@H](C)C(=O)N[C@@H](Cc2ccc(O)cc2)C(=O)N[C@@H](Cc2c[nH]c3ccccc23)C(=O)N[C@@H](C)C(=O)N[C@@H](C)C(=O)N[C@@H](CC(C)C)C(=O)N1)C(=O)N[C@H](C)C(N)=O (single isomer, unassigned) [compound 203]	0%	2%	2%	100 to 1000 nM	10 to 100 nM	10 to 100 nM	< 10 nM	1	3	12	10	–	–	–	–	–
CC(=O)N[C@@H](CC(C)C)C(=O)N[C@H](C(=O)N[C@@H](Cc1ccccc1)C(=O)N[C@]1(C)CCCCCCC=CCCC[C@@](C)(C(=O)N[C@@H](C)C(=O)N[C@@H](C)C(=O)N[C@@H](Cc2ccccc2)C(=O)N[C@H](C)C(N)=O)NC(=O)[C@H](CC(C)C)NC(=O)[C@H](CCC(N)=O)NC(=O)[C@H](C)NC(=O)[C@H](Cc2c[nH]c3ccccc23)NC(=O)[C@H](Cc2ccc(O)cc2)NC(=O)[C@H](CCC(=O)O)NC1=O)[C@@H](C)O (single isomer, unassigned) [compound 218]	0%	−4%	1%	100 to 1000 nM	10 to 100 nM	< 10 nM	< 10 nM	1	2	8	18	–	–	–	–	–
CC(=O)N[C@@H](CC(C)C)C(=O)N[C@H](C(=O)N[C@@H](Cc1ccccc1)C(=O)N[C@]1(C)CCCCCCC=CCCC[C@@](C)(C(=O)N[C@@H](C)C(=O)N[C@@H](C)C(=O)N[C@H](C(=O)N[C@H](C)C(N)=O)C(C)C)NC(=O)[C@H](CC(C)C)NC(=O)[C@H](CCC(N)=O)NC(=O)[C@H](C)NC(=O)[C@H](Cc2c[nH]c3ccccc23)NC(=O)[C@H](Cc2ccc(O)cc2)NC(=O)[C@H](CCC(=O)O)NC1=O)[C@@H](C)O (single isomer, unassigned) [compound 221]	3%	3%	11%	10 to 100 nM	10 to 100 nM	< 10 nM	< 10 nM	1	3	6	12	–	–	–	–	–
CC(=O)N[C@@H](CCC(=O)O)C(=O)N[C@H](C(=O)N[C@@H](Cc1ccccc1)C(=O)N[C@]1(C)CCCCCCC=CCCC[C@@](C)(C(=O)N[C@@H](C)C(=O)N[C@@H](C)C(=O)N[C@@H](C)C(=O)N[C@@H](C)C(=O)N[C@@H](C)C(=O)N[C@H](C)C(N)=O)NC(=O)[C@H](CC(C)C)NC(=O)[C@H](CCC(N)=O)NC(=O)[C@H](C)NC(=O)[C@H](Cc2c[nH]c3ccccc23)NC(=O)[C@H](Cc2ccc(O)cc2)NC(=O)[C@H](CCC(=O)O)NC1=O)[C@@H](C)O (single isomer, unassigned) [compound 341]	0%	0%	0%	–	–	–	–	3	11	14	21	10 to 100 nM	< 10 nM	10 to 100 nM	< 10 nM	8
CC(=O)N[C@@H](CC(C)C)C(=O)N[C@H](C(=O)N[C@@H](Cc1ccccc1)C(=O)N[C@]1(C)CCCCCCC=CCCC[C@@](C)(C(=O)N[C@@H](C)C(=O)N[C@@H](C)C(=O)N[C@@H](C)C(=O)N[C@@H](C)C(=O)N[C@@H](C)C(=O)N[C@@H](C)C(=O)N[C@H](C)C(N)=O)NC(=O)[C@H](CC(C)C)NC(=O)[C@H](CCC(N)=O)NC(=O)[C@H](C)NC(=O)[C@H](Cc2c[nH]c3ccccc23)NC(=O)[C@H](Cc2ccc(O)cc2)NC(=O)[C@H](CCC(=O)O)NC1=O)[C@@H](C)O (single isomer, unassigned) [compound 343]	0%	0%	0%	–	–	–	–	1	2	5	29	10 to 100 nM	< 10 nM	10 to 100 nM	< 10 nM	1
CC(=O)N[C@@H](CC(C)C)C(=O)N[C@H](C(=O)N[C@@H](Cc1ccccc1)C(=O)N[C@]1(C)CCCCCCC=CCCC[C@@](C)(C(=O)N[C@@H](C)C(=O)N[C@@H](C)C(=O)N[C@@H](C)C(=O)N[C@@H](C)C(=O)N[C@@H](C)C(=O)N[C@H](C)C(N)=O)NC(=O)[C@H](CC2CCC2)NC(=O)[C@H](CCC(N)=O)NC(=O)[C@H](C)NC(=O)[C@H](Cc2c[nH]c3ccccc23)NC(=O)[C@H](Cc2ccc(O)cc2)NC(=O)[C@H](CCC(=O)O)NC1=O)[C@@H](C)O (single isomer, unassigned) [compound 347]	0%	0%	0%	10 to 100 nM	10 to 100 nM	10 to 100 nM	< 10 nM	2	5	8	29	–	–	–	–	3
CC(=O)N[C@@H](C)C(=O)N[C@@H](CC(C)C)C(=O)N[C@H](C(=O)N[C@@H](Cc1ccccc1)C(=O)N[C@]1(C)CCCCCCC=CCCC[C@@](C)(C(=O)N[C@@H](CO)C(=O)N[C@@H](C)C(=O)N[C@@H](C)C(=O)N[C@H](C)C(N)=O)NC(=O)[C@H](CC2CCC2)NC(=O)[C@H](CCC(N)=O)NC(=O)[C@H](C)NC(=O)[C@H](Cc2c[nH]c3ccccc23)NC(=O)[C@H](Cc2ccc(O)cc2)NC(=O)[C@H](CCC(=O)O)NC1=O)[C@@H](C)O (single isomer, unassigned) [compound 355]	0%	0%	0%	10 to 100 nM	< 10 nM	< 10 nM	< 10 nM	1	11	13	30	–	–	–	–	4
CC(=O)N[C@@H](C)C(=O)N[C@@H](CC(C)C)C(=O)N[C@H](C(=O)N[C@@H](Cc1ccccc1)C(=O)N[C@]1(C)CCCCCCC=CCCC[C@@](C)(C(=O)N[C@@H](CO)C(=O)N[C@@H](C)C(=O)N[C@@H](C)C(=O)N[C@@H](C)C(=O)N[C@H](C)C(N)=O)NC(=O)[C@H](CC2CCC2)NC(=O)[C@H](CCC(N)=O)NC(=O)[C@H](C)NC(=O)[C@H](Cc2c[nH]c3ccccc23)NC(=O)[C@H](Cc2ccc(O)cc2)NC(=O)[C@H](CCC(=O)O)NC1=O)[C@@H](C)O (single isomer, unassigned) [compound 357]	0%	0%	0%	10 to 100 nM	< 10 nM	< 10 nM	< 10 nM	2	11	15	23	–	–	–	–	7
CC(=O)N[C@@H](C)C(=O)N[C@@H](C)C(=O)N[C@@H](CC(C)C)C(=O)N[C@H](C(=O)N[C@@H](Cc1ccccc1)C(=O)N[C@]1(C)CCCCCCC=CCCC[C@@](C)(C(=O)N[C@@H](CO)C(=O)N[C@@H](C)C(=O)N[C@@H](C)C(=O)N[C@@H](C)C(=O)N[C@H](C)C(N)=O)NC(=O)[C@H](CC2CCC2)NC(=O)[C@H](CCC(N)=O)NC(=O)[C@H](C)NC(=O)[C@H](Cc2c[nH]c3ccccc23)NC(=O)[C@H](Cc2ccc(O)cc2)NC(=O)[C@H](CCC(=O)O)NC1=O)[C@@H](C)O (single isomer, unassigned) [compound 359]	0%	0%	0%	10 to 100 nM	10 to 100 nM	< 10 nM	< 10 nM	3	11	13	23	–	–	–	–	9
CC(=O)N[C@@H](CC(C)C)C(=O)N[C@H](C(=O)N[C@@H](Cc1ccccc1)C(=O)N[C@]1(C)CCCCCCC=CCCC[C@@](C)(C(=O)N[C@@H](CO)C(=O)N[C@@H](C)C(=O)N[C@@H](CC(C)C)C(N)=O)NC(=O)[C@H](CC(C)C)NC(=O)[C@H](CCC(N)=O)NC(=O)[C@H](C)NC(=O)[C@H](Cc2c[nH]c3ccccc23)NC(=O)[C@H](Cc2ccc(O)cc2)NC(=O)[C@H](C)NC1=O)[C@@H](C)O [compound 4] (Ac-LTF[R8]AYWAQL[S5]SAL-NH2; staple 4-11)	−2%	1%	2%	100 to 1000 nM	10 to 100 nM	10 to 100 nM	< 10 nM	–	9	37	35	–	–	–	–	–
